In the supplement of paper PMC11061612:

Key:
Assay in all cases: Bliss excess, mean over the matrix (fraction); higher = more synergy
U-87-MG (Glioblastoma) = system: U-87-MG (Glioblastoma)
In short: (§1)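 Cell lines in DMEM/F12 or RPMI with 10% FBS were plated in 1536-well plates, held 24 hours at 37°C, 5% CO2, then given two-drug dose matrices for 72 hours (DMSO typically 0.2%). Viability was read by CellTiter-Glo 2.0 luminescence and scaled as inhibition from 0 (vehicle wells) to 1 (blank wells). Combination Emax is the second-highest inhibition in the matrix; Bliss excess is observed combination effect minus expected EA + EB − EA·EB, EA and EB being single-agent effects.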

[1] = system: MFE-319 (Endometrial Carcinoma)
In short: as §1

[2] = system: PF-382 (T-Lymphoblastic Leukemia)
In short: as §1

[3] = system: HC-1 (Other Blood Carcinomas)
In short: as §1

[4] = system: ASH-3 (Thyroid Gland Carcinoma)
In short: as §1

EW-3 (Ewing's Sarcoma) = system: EW-3 (Ewing's Sarcoma)
In short: as §1

[5] = system: HSC-2 (Oral Cavity Carcinoma)
In short: as §1

[6] = system: NCI-H2347 (Lung Adenocarcinoma)
In short: as §1

[7] = system: BV-173 (Chronic Myelogenous Leukemia)
In short: as §1

[8] = system: LOU-NH91 (Squamous Cell Lung Carcinoma)
In short: as §1

[9] = system: H-EMC-SS (Chondrosarcoma)
In short: as §1

[10] = system: KYSE-150 (Esophageal Squamous Cell Carcinoma)
In short: as §1

RPMI-7951 (Melanoma) = system: RPMI-7951 (Melanoma)
In short: as §1

IMR-5 (Neuroblastoma) = system: IMR-5 (Neuroblastoma)
In short: as §1

SMILES | Bliss excess (U-87-MG (Glioblastoma)) | Bliss excess [1] | Bliss excess [2] | Bliss excess [3] | Bliss excess [4] | Bliss excess (EW-3 (Ewing's Sarcoma)) | Bliss excess [5] | Bliss excess [6] | Bliss excess [7] | Bliss excess [8] | Bliss excess [9] | Bliss excess [10] | Bliss excess (RPMI-7951 (Melanoma)) | Bliss excess (IMR-5 (Neuroblastoma))
CN(C)CCCOc1ccc(-c2ccc3ncc4c(c3c2)n(C2CCOCC2)c(=O)n4C)cn1 [AZD0156] + O=C(c1cc(Cc2n[nH]c(=O)c3ccccc23)ccc1F)N1CCN(C(=O)C2CC2)CC1 [Olaparib] (first compound max 3 µM, partner max 3 µM) | 0.0207 | 0.0188 | 0.102 | 0.134 | -0.0311 | 0.13 | 0.156 | -0.0089 | 0.092 | -0.0153 | 0.029 | 0.116 | 0.0588 | 0.0884
C=CCn1c(=O)c2cnc(Nc3ccc(N4CCN(C)CC4)cc3)nc2n1-c1cccc(C(C)(C)O)n1 [AZD1775] + C1CN(CCC1(C(=O)N[C@@H](CCO)C2=CC=C(C=C2)Cl)N)C3=NC=NC4=C3C=CN4 [Capivasertib] (first compound max 3 µM, partner max 3 µM) | 0.0503 | -0.0524 | 0.144 | 0.0514 | -0.0086 | -0.0571 | 0.0724 | -0.0534 | 0.0291 | -0.0301 | -0.0422 | 0.0064 | -0.0274 | -0.0214
CN(CCO)CC[C@H](CSc1ccccc1)Nc1ccc(S(=O)(=O)NC(=O)c2ccc(N3CCC([C@@H](O)c4ccccc4-c4ccc(Cl)cc4)CC3)cc2)cc1S(=O)(=O)C(F)(F)F [AZD4320] + C1CN(CCC1(C(=O)N[C@@H](CCO)C2=CC=C(C=C2)Cl)N)C3=NC=NC4=C3C=CN4 [Capivasertib] (first compound max 1 µM, 7x7, partner max 3 µM) | -0.045 | -0.0081 | 0.0458 | -0.0058 | -0.0192 | -0.0687 | -0.0379 | -0.0533 | -0.0135 | -0.067 | -0.0081 | -0.0579 | 0.0055 | 0.154
CN(CCO)CC[C@H](CSc1ccccc1)Nc1ccc(S(=O)(=O)NC(=O)c2ccc(N3CCC([C@@H](O)c4ccccc4-c4ccc(Cl)cc4)CC3)cc2)cc1S(=O)(=O)C(F)(F)F [AZD4320] + C=CCn1c(=O)c2cnc(Nc3ccc(N4CCN(C)CC4)cc3)nc2n1-c1cccc(C(C)(C)O)n1 [AZD1775] (first compound max 1 µM, partner max 1 µM) | -0.0637 | 0.0537 | -0.0132 | 0.206 | 0.0819 | 0.11 | 0.058 | 0.034 | -0.0038 | 0.105 | -0.0004 | -0.0634 | -0.0023 | 0.118
CN(CCO)CC[C@H](CSc1ccccc1)Nc1ccc(S(=O)(=O)NC(=O)c2ccc(N3CCC([C@@H](O)c4ccccc4-c4ccc(Cl)cc4)CC3)cc2)cc1S(=O)(=O)C(F)(F)F [AZD4320] + CCN(CCO)CCCOc1ccc2c(Nc3cc(CC(=O)Nc4cccc(F)c4)[nH]n3)ncnc2c1 [AZD2811] (first compound max 1 µM, 7x7, partner max 1 µM) | -0.019 | 0.0841 | 0.0518 | 0.173 | 0.0577 | 0.0814 | 0.166 | -0.0472 | -0.0566 | 0.0995 | 0.0545 | 0.007 | 0.0295 | -0.0229
CN(CCO)CC[C@H](CSc1ccccc1)Nc1ccc(S(=O)(=O)NC(=O)c2ccc(N3CCC([C@@H](O)c4ccccc4-c4ccc(Cl)cc4)CC3)cc2)cc1S(=O)(=O)C(F)(F)F [AZD4320] + CN(C)CCCOc1ccc(-c2ccc3ncc4c(c3c2)n(C2CCOCC2)c(=O)n4C)cn1 [AZD0156] (first compound max 1 µM, 7x7, partner max 1 µM) | -0.0331 | -0.0009 | -0.002 | -0.0813 | 0.0341 | 0.0012 | -0.0242 | -0.0378 | -0.0681 | 0.0054 | -0.0374 | -0.0392 | 0.0046 | 0.0284
CN(CCO)CC[C@H](CSc1ccccc1)Nc1ccc(S(=O)(=O)NC(=O)c2ccc(N3CCC([C@@H](O)c4ccccc4-c4ccc(Cl)cc4)CC3)cc2)cc1S(=O)(=O)C(F)(F)F [AZD4320] + C[C@@H]1COCCN1C2=NC(=NC(=C2)C3(CC3)[S@](=N)(=O)C)C4=C5C=CNC5=NC=C4 [AZD6738] (first compound max 1 µM, 7x7, partner max 10 µM) | -0.0248 | -0.0119 | -0.0126 | 0.0127 | -0.0011 | -0.0236 | 0.0594 | -0.0256 | -0.0453 | 0.0126 | -0.0351 | -0.0536 | -0.0137 | 0.102
COc1nnc2ccc(N3CCC(c4ccc(OCCN5CCN(C)C(=O)[C@H]5C)cc4)CC3)nn12 [AZD5153] + CN(CC[C@H](CSC1=CC=CC=C1)NC2=C(C=C(C=C2)S(=O)(=O)NC(=O)C3=CC=C(C=C3)N4CCC(CC4)[C@H](C5=CC=CC=C5C6=CC=C(C=C6)Cl)O)S(=O)(=O)C(F)(F)F)CCO [AZD4320] (first compound max 1 µM, 7x7, partner max 1 µM) | 0.099 | -0.0369 | 0.0343 | -0.0468 | 0.107 |  |  | -0.042 | -0.0879 | -0.0215 |  | 0.0321 | 0.0467 | 0.0807
Cc1c2c(nn1C)CSCc1cc(n(C)n1)CSc1cc(c3ccccc3c1)OCCCc1c(C(=O)O)n(C)c3c-2c(Cl)ccc13 [AZD5991] + C=CCn1c(=O)c2cnc(Nc3ccc(N4CCN(C)CC4)cc3)nc2n1-c1cccc(C(C)(C)O)n1 [AZD1775] (first compound max 1 µM, partner max 1 µM) | 0.0392 | 0.0074 | -0.0314 | 0.0432 | -0.0243 | 0.017 | -0.0132 | -0.0393 | -0.072 | 0.0376 | 0.0071 | 0.0496 |  | 0.0063
Cc1c2c(nn1C)CSCc1cc(n(C)n1)CSc1cc(c3ccccc3c1)OCCCc1c(C(=O)O)n(C)c3c-2c(Cl)ccc13 [AZD5991] + CC1(C)CCC(CN2CCN(c3ccc(C(=O)NS(=O)(=O)c4ccc(NCC5CCOCC5)c([N+](=O)[O-])c4)c(Oc4cnc5[nH]ccc5c4)c3)CC2)=C(c2ccc(Cl)cc2)C1 [Venetoclax] (first compound max 1 µM, 7x7, partner max 1 µM) | -0.0877 | 0.0377 | 0.0223 |  | -0.038 | 0.125 | 0.0693 | -0.0188 | 0.0178 | -0.0589 | 0.0646 | -0.0324 | -0.0568 | 0.0656
Cc1c2c(nn1C)CSCc1cc(n(C)n1)CSc1cc(c3ccccc3c1)OCCCc1c(C(=O)O)n(C)c3c-2c(Cl)ccc13 [AZD5991] + Cc1cc2ncnn2cc1Nc1ncc2c(n1)n(C1CCOCC1)c(=O)n2C [AZD7648] (first compound max 1 µM, 7x7, partner max 10 µM) | -0.0311 | -0.0534 | 0.038 | -0.024 | -0.0739 | -0.0626 |  | -0.0472 | -0.0512 | -0.0307 | 0.0025 | -0.0195 | -0.0317 | 0.0226
CC(=O)c1c(C)c2cnc(Nc3ccc(N4CCNCC4)cn3)nc2n(C2CCCC2)c1=O [Palbociclib] + CN(CC[C@H](CSC1=CC=CC=C1)NC2=C(C=C(C=C2)S(=O)(=O)NC(=O)C3=CC=C(C=C3)N4CCC(CC4)[C@H](C5=CC=CC=C5C6=CC=C(C=C6)Cl)O)S(=O)(=O)C(F)(F)F)CCO [AZD4320] (first compound max 10 µM, 7x7, partner max 1 µM) | -0.0528 | -0.0554 | -0.0062 | 0.0001 | -0.0104 |  |  | -0.109 | -0.0524 | -0.0157 |  | -0.109 | 0.0312 | 0.0866
COc1cccc(OCCCN)c1-c1cc(Nc2cnc(C#N)cn2)n[nH]1 [Prexasertib] + O=C(c1cc(Cc2n[nH]c(=O)c3ccccc23)ccc1F)N1CCN(C(=O)C2CC2)CC1 [Olaparib] (first compound max 1 µM, 7x7, partner max 10 µM) |  | -0.0891 | -0.017 | 0.0035 | 0.027 | -0.0378 | -0.0206 | -0.0407 | 0.0169 | 0.0427 | -0.0445 | 0.0491 | -0.0358 | -0.0097
COc1cc2c(cc1OCCCCCOc1cc3c(cc1OC)C(=O)N1C=C(C)C[C@H]1C=N3)N=C[C@@H]1CC(C)=CN1C2=O [SG3199] + O=C(c1cc(Cc2n[nH]c(=O)c3ccccc23)ccc1F)N1CCN(C(=O)C2CC2)CC1 [Olaparib] (first compound max 0.001 µM, 7x7, partner max 10 µM) |  | -0.041 | 0.0069 | -0.0164 | -0.0232 | -0.0613 | -0.0751 | -0.0661 | 0.0535 | -0.0224 | -0.0812 | -0.0131 | 0.0032 | 0.0167
CCc1c2c(nc3ccc(O)cc13)-c1cc3c(c(=O)n1C2)COC(=O)[C@]3(O)CC [SN-38] + CN(C)CCCOc1ccc(-c2ccc3ncc4c(c3c2)n(C2CCOCC2)c(=O)n4C)cn1 [AZD0156] (first compound max 0.3 µM, 7x7, partner max 1 µM) |  | -0.0108 | 0.0739 | -0.0261 | 0.0121 | -0.0679 | 0.0085 | -0.0118 | -0.0256 | 0.011 | -0.0092 | 0.1 | 0.0647 | 0.0314
C[C@@H](c1ccc2nccn2c1)n1nnc2ncc(-c3cnn(C)c3)nc21 [Savolitinib] + CN(CC[C@H](CSC1=CC=CC=C1)NC2=C(C=C(C=C2)S(=O)(=O)NC(=O)C3=CC=C(C=C3)N4CCC(CC4)[C@H](C5=CC=CC=C5C6=CC=C(C=C6)Cl)O)S(=O)(=O)C(F)(F)F)CCO [AZD4320] (first compound max 1 µM, 7x7, partner max 1 µM) | -0.143 | -0.0736 | -0.0665 | -0.0254 | -0.0078 |  |  | -0.0474 | -0.0004 | -0.0642 |  | -0.0775 | -0.0203 | -0.0399
